Measured values as given in ChEMBL document CHEMBL1201862, “PubChem BioAssay data set” (2004).
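Briefly, cells in 96-well plates were exposed to five compound concentrations for 48 h, and endpoints were estimated by linear interpolation. At the GI50, growth is halved.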 Active and inactive are the calls of the source. No stated cut-off is given here; in the data, active = GI50 up to about 1.1 µM and inactive = higher.

Experiments:
Experiment in all cases: NCI anticancer screen, dose series, 48 h
COLO 205 = test system: COLO 205
TK-10 = test system: TK-10
SK-MEL-5 = test system: SK-MEL-5
OVCAR-5 = test system: OVCAR-5
NCI/ADR-RES = test system: NCI/ADR-RES
CAKI-1 = test system: CAKI-1
MDA-MB-435 = test system: MDA-MB-435
UO-31 = test system: UO-31
SK-MEL-2 = test system: SK-MEL-2
SR = test system: SR
T47D = test system: T47D
ACHN = test system: ACHN
MCF7 = test system: MCF7
HT-29 = test system: HT-29
SNB-19 = test system: SNB-19
SF-268 = test system: SF-268
LOX IMVI = test system: LOX IMVI
SF-295 = test system: SF-295
SK-OV-3 = test system: SK-OV-3
SF-539 = test system: SF-539

SMILES | GI50 (COLO 205) | GI50 (TK-10) | GI50 (SK-MEL-5) | GI50 (OVCAR-5) | GI50 (NCI/ADR-RES) | GI50 (CAKI-1) | GI50 (MDA-MB-435) | GI50 (UO-31) | GI50 (SK-MEL-2) | GI50 (SR) | GI50 (T47D) | GI50 (ACHN) | GI50 (MCF7) | GI50 (HT-29) | GI50 (SNB-19) | GI50 (SF-268) | GI50 (LOX IMVI) | GI50 (SF-295) | GI50 (SK-OV-3) | GI50 (SF-539)
O=C(c1ccccc1)n1[nH]c(=O)n(-c2ccc(Cl)cc2)c1=O | > 100 µM (inactive) | > 100 µM (inactive) | > 100 µM (inactive) | > 100 µM (inactive) | > 100 µM (inactive) | > 100 µM (inactive) | > 100 µM (inactive) | > 100 µM (inactive) | > 100 µM (inactive) | > 100 µM (inactive) | > 100 µM (inactive) | > 100 µM (inactive) | > 100 µM (inactive) | > 100 µM (inactive) | 39 µM (inactive) | > 100 µM (inactive) | > 100 µM (inactive) | > 100 µM (inactive) | > 100 µM (inactive) | 
CCCCC(=O)Nc1ccc2cc(C(=O)OC)c(ON3C(=O)c4ccccc4C3=O)nc2n1 | 64.4 µM (inactive) | 14.6 µM (inactive) | 63.8 µM (inactive) | 23 µM (inactive) | 32.6 µM (inactive) | 22.2 µM (inactive) | 37.6 µM (inactive) | 18.2 µM (inactive) | 37.5 µM (inactive) | 36.4 µM (inactive) | 35.3 µM (inactive) | 28.1 µM (inactive) | 43.2 µM (inactive) |  | 27.9 µM (inactive) | 29.1 µM (inactive) | 31 µM (inactive) | 33.8 µM (inactive) | 48.1 µM (inactive) | 18 µM (inactive)
COc1cc2c(cc1OC)C1CN3CCCC3C(O)C1c1cc(OC)c(OC)cc1-2 (stereo not given) | > 100 µM (inactive) | > 100 µM (inactive) | > 100 µM (inactive) | > 100 µM (inactive) | > 100 µM (inactive) | > 100 µM (inactive) | > 100 µM (inactive) | > 100 µM (inactive) | > 100 µM (inactive) | > 100 µM (inactive) | 15.3 µM (inactive) | > 100 µM (inactive) | > 100 µM (inactive) | > 100 µM (inactive) | > 100 µM (inactive) | > 100 µM (inactive) | > 100 µM (inactive) | > 100 µM (inactive) | > 100 µM (inactive) | 
CN(C)NC(=S)Nc1ccccc1Br | > 100 µM (inactive) | > 100 µM (inactive) | > 100 µM (inactive) | > 100 µM (inactive) | > 100 µM (inactive) | > 100 µM (inactive) | > 100 µM (inactive) | > 100 µM (inactive) | > 100 µM (inactive) | > 100 µM (inactive) | > 100 µM (inactive) | > 100 µM (inactive) | > 100 µM (inactive) | > 100 µM (inactive) | > 100 µM (inactive) |  | > 100 µM (inactive) | > 100 µM (inactive) | > 100 µM (inactive) | > 100 µM (inactive)
CC(=O)c1cccc(NC(=O)/C(=N\NC(=S)NN)C2C(=O)Nc3ccccc3[S+]2[O-])c1 (stereo not given) |  | > 100 µM (inactive) | > 100 µM (inactive) | > 100 µM (inactive) | > 100 µM (inactive) | > 100 µM (inactive) | > 100 µM (inactive) | > 100 µM (inactive) | > 100 µM (inactive) | > 100 µM (inactive) | > 100 µM (inactive) | > 100 µM (inactive) | > 100 µM (inactive) | > 100 µM (inactive) | > 100 µM (inactive) | > 100 µM (inactive) | > 100 µM (inactive) | > 100 µM (inactive) | > 100 µM (inactive) | > 100 µM (inactive)
O=C(Oc1c(Br)cc(Br)cc1C(=O)Oc1ccccc1)C(=O)Oc1c(Br)cc(Br)cc1C(=O)Oc1ccccc1 | 21.6 µM (inactive) | 49.2 µM (inactive) | 17.3 µM (inactive) | 24.4 µM (inactive) | 38.9 µM (inactive) | 19.7 µM (inactive) | 10.1 µM (inactive) | 16 µM (inactive) | 26.7 µM (inactive) | 18.5 µM (inactive) | 27.1 µM (inactive) | 27.7 µM (inactive) | 26.7 µM (inactive) | 32.7 µM (inactive) | 20 µM (inactive) | 29 µM (inactive) |  | 31 µM (inactive) | 33.8 µM (inactive) | 19.7 µM (inactive)
O=CC(=C(I)I)c1ccccc1 | 2.51 µM (inactive) | 2.45 µM (inactive) | 4.07 µM (inactive) | 6.75 µM (inactive) | 14.6 µM (inactive) | 3.03 µM (inactive) | 2.07 µM (inactive) | 2.69 µM (inactive) | 6.49 µM (inactive) | 0.197 µM (active) | 3.55 µM (inactive) | 3 µM (inactive) | 3.11 µM (inactive) | 3.04 µM (inactive) | 7.78 µM (inactive) | 2.25 µM (inactive) | 1.66 µM (inactive) | 7.78 µM (inactive) | 15.9 µM (inactive) | 2.35 µM (inactive)
NNC(=O)CSc1nnc(CCCCCCCCc2nnc(SCC(=O)NN)o2)o1 | > 100 µM (inactive) | > 100 µM (inactive) | > 100 µM (inactive) | > 100 µM (inactive) | > 100 µM (inactive) | > 100 µM (inactive) | > 100 µM (inactive) | > 100 µM (inactive) | > 100 µM (inactive) | > 100 µM (inactive) | > 100 µM (inactive) | > 100 µM (inactive) | > 100 µM (inactive) | > 100 µM (inactive) | > 100 µM (inactive) | > 100 µM (inactive) | > 100 µM (inactive) | > 100 µM (inactive) | > 100 µM (inactive) | 
CCN(CC)CCn1ncc2c3c(=O)c4cccnc4n(CCN(CC)CC)c3ccc21 | 2.32 µM (inactive) | > 10 µM (inactive) | > 10 µM (inactive) | 9.12 µM (inactive) | 9.18 µM (inactive) | > 10 µM (inactive) | 6.21 µM (inactive) |  | > 10 µM (inactive) | 6.98 µM (inactive) | > 10 µM (inactive) | 5.21 µM (inactive) | 3.22 µM (inactive) | 3.51 µM (inactive) | > 10 µM (inactive) | 7.43 µM (inactive) | 5.41 µM (inactive) | 7.45 µM (inactive) | > 10 µM (inactive) | 9.27 µM (inactive)
COc1cccc2c1NC(=O)Cc1c-2[nH]c2ccccc12 | > 100 µM (inactive) | > 100 µM (inactive) | 41.9 µM (inactive) | > 100 µM (inactive) | 82.2 µM (inactive) | > 100 µM (inactive) | 29.1 µM (inactive) | > 100 µM (inactive) | > 100 µM (inactive) | > 100 µM (inactive) | 40.6 µM (inactive) | > 100 µM (inactive) | 88.5 µM (inactive) | 47.6 µM (inactive) |  | > 100 µM (inactive) | > 100 µM (inactive) | > 100 µM (inactive) | > 100 µM (inactive) | > 100 µM (inactive)
Oc1ccc(CCc2cc(O)cc(O)c2)cc1 [DIHYDRORESVERATROL] | > 100 µM (inactive) | > 100 µM (inactive) | > 100 µM (inactive) | > 100 µM (inactive) | > 100 µM (inactive) | > 100 µM (inactive) | > 100 µM (inactive) | > 100 µM (inactive) | > 100 µM (inactive) | > 100 µM (inactive) | > 100 µM (inactive) | 79.4 µM (inactive) | > 100 µM (inactive) | > 100 µM (inactive) | > 100 µM (inactive) | > 100 µM (inactive) |  | > 100 µM (inactive) | > 100 µM (inactive) | > 100 µM (inactive)
